In publication PMC4323687 (Neurobiology of disease, 2014):

What was measured:
[1] = tested on: mThy1-hAPP751 APPtg mouse model of AD; assay: Immunoblot of Aβ42 species in brain membrane fraction of APPtg mice; type: in vivo; details: vs vehicle-treated APPtg mice
[2] = target: monomeric Aβ42 (Homo sapiens, UniProt P05067); assay: Fibrillization of monomeric Aβ42; type: biochemical
[3] = tested on: mThy1-hAPP751 APPtg mouse model of AD; assay: Aβ42 ELISA in APPtg mouse brain; type: in vivo; details: vs vehicle-treated APPtg mice
[4] = Pharmacokinetics and brain distribution after single administration; type: in vivo, C57/BL6 mice
[5] = tested on: Slack (Slo2.2) channels; details: ref Yang et al., 2006; cited from earlier work
[6] = tested on: mThy1-hAPP751 APPtg mouse model of AD; assay: Electron microscopy of neuropil and amyloid in APPtg mouse brain; type: in vivo; details: same treatments as E16
[7] = tested on: mThy1-hAPP751 APPtg mouse model of AD; assay: Aβ immunostaining of plaques in frontal cortex and hippocampus of APPtg mice; type: in vivo; details: same treatments as E16
[8] = tested on: mThy1-hAPP751 APPtg mouse model of AD; assay: Immunohistochemistry of synaptophysin, MAP2, NeuN and GFAP in APPtg mouse brain; type: in vivo; details: for synapse loss (SYN-immunoreactivity) in the frontal cortex / synapse loss (SYN-immunoreactivity) in the hippocampus: vs APPtg mice treated with PBS
[9] = target: Aβ42 seeding-mediated fibril growth (Homo sapiens, UniProt P05067); assay: Aβ42 seeding polymerization assay; type: biochemical; details: for fibril growth and number of amyloid fibrils by TEM: 3 hours incubation of seeds and monomers with compound; for inhibition at 10 µM: read-out: inhibition of seeded fibril growth (seeding capacity of short fibrils)
[10] = target: protofibrillar Aβ42 (Homo sapiens, UniProt P05067); assay: Conversion of Aβ42 protofibrils into mature fibrils; type: biochemical; details: 48 hours, ThT
[11] = tested on: primary cortical neurons; details: 0.5, 5, 10, 20 and 50 μM, 24 hours, MTT
[12] = tested on: Aβ; details: ref Colombo et al., 2009; cited from earlier work

Chain of monomeric Aβ42 (P05067 672-713 limits assumed): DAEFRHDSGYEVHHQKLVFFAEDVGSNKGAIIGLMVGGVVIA
Chain of Aβ42 seeding-mediated fibril growth (P05067 672-713 limits assumed): as above
Chain of protofibrillar Aβ42 (P05067 672-713 limits assumed): as above

Row | Compound | levels of Aβ42 monomers and intermediate species (immunoblot, 82E1) [1] | IC50 [2] [µM] | Aβ42 levels by ELISA, guanidine-HCl brain extractions [3] | Aβ42 levels by ELISA, membrane fractions [3] | amyloid fibrils in neuropil by electron microscopy [6] | status of axons/neurites in neuropil by electron microscopy [6] | synapse loss (SYN-immunoreactivity) in the frontal cortex [8] | synapse loss (SYN-immunoreactivity) in the hippocampus [8] | MAP2 immunoreactivity (neuronal damage) in the frontal cortex ([8]; vs vehicle-treated APPtg mice) | MAP2 immunoreactivity (neuronal damage) in the hippocampus ([8]; vs vehicle-treated APPtg mice) | NeuN immunoreactivity in the frontal cortex ([8]; vs vehicle-treated APPtg mice) | IC50 [9] [µM] | fibril growth and number of amyloid fibrils by TEM [9] | inhibition at 10 µM [9] [%] | other results
1 | Oc1c(Cl)cc(Cl)cc1Sc1cc(Cl)cc(Cl)c1O [bithionol] | significant reduction | 5.1 | significant and dramatic reduction | significant and dramatic reduction | only few fibrillar aggregates | axons were comparable to controls | significantly reversed | significantly reversed | reversion of the damage | reversion of the damage | increase | 5.33 | significant inhibition of fibril growth | 60 to 80 | half-life ([4]; C57/BL6, mouse, brain, iv, 10 mg/kg): 1.77 h; half-life ([4]; C57/BL6, mouse, plasma, iv, 10 mg/kg): 7.62 h; activation of Slack channels [5]: robust activator of Slack channels; Aβ42-immunoreactivity in the hippocampus (% area of neuropil) vs vehicle APPtg [7]: significant decrease; GFAP immunoreactivity (astroglial reactivity) in the frontal cortex ([8]; vs vehicle-treated APPtg mice): strong and significant reduction
2 | O=C1c2c(O)ccc(O)c2C(=O)c2c(NCCNCCO)ccc(NCCNCCO)c21 [mitoxantrone] | significant reduction | 2.5 | significant and dramatic reduction | significant and dramatic reduction | only few fibrillar aggregates | axons were comparable to controls | significantly reversed | significantly reversed | reversion of the damage | reversion of the damage | increase | 1.7 | significant inhibition of fibril growth | 80 to 90 | inhibition of protofibril to fibril conversion [10]: > 80%; effect of compound alone on cellular viability of neurons [11]: significant reduction of the cellular viability only at high concentrations; Aβ oligomerization and fibril formation [12]: can block Aβ oligomerization and fibril formation
3 | Oc1c(Cl)cc(Cl)c(Cl)c1Cc1c(O)c(Cl)cc(Cl)c1Cl [hexachlorophene] | comparable to that observed in the vehicle-treated APPtg mice | 5 | did not significantly affect | did not significantly affect |  |  |  |  |  |  |  | 5.9 | significant inhibition of fibril growth | 60 to 80 | Kp ([4]; C57/BL6, mouse, in vivo, iv, 10 mg/kg): 0.5; brain penetration ([4]; single IV administration 10 mg/kg): 50%
